Earlier results in patent US20100150868A1, “Methods of Individually Optimizing Treatment for an Inflammation Associated Disease” (Tel HaShomer Medical Research Infrastructure and Services …, priority 2005, published 2010).

System: TNF-α secretion of MOG stimulated PBMC
Conditions: in vitro, 10 μg/ml

## Glatiramer acetate [Copaxone]
  inhibitory effect on TNF-α producing cells compared with in-vivo experiments: same inhibitory effect
